Source: publication PMC2962730 (Journal of neurochemistry, 2010)
Numbering of substitutions follows the chain as printed.

What was measured:
hVAChT W331A = target: T1, hVAChT W331A (Homo sapiens, UniProt Q16572, W331A); assay: [3H]ACh transport; format: biochemical
T1 sequence (Q16572 1-532 W331A): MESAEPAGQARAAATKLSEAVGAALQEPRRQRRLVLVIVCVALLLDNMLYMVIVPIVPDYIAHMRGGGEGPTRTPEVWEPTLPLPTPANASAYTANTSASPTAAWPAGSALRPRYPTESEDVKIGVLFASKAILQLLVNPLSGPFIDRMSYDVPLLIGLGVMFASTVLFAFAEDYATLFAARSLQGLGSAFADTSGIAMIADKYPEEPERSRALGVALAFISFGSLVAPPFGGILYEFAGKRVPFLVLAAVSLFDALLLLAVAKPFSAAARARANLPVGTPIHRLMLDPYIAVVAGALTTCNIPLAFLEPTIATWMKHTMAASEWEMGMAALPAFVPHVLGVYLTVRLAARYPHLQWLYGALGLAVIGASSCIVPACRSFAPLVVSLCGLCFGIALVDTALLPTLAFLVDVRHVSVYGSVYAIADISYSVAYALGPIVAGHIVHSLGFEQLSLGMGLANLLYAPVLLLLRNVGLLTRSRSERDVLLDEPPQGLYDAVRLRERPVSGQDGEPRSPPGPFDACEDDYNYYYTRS

hVAChT A334F = target: T2, hVAChT A334F (Homo sapiens, UniProt Q16572, A334F); assay: ACh equilibrium binding by competition against [3H]vesamicol; conditions: pH 7.4, monophasic fit, FHA fixed to 1
T2 sequence (Q16572 1-532 A334F): T1 sequence (Q16572 1-532 W331A) with A331W, A334F

hVAChT C391A = target: T3, hVAChT C391A (Homo sapiens, UniProt Q16572, C391A); assay: [3H]ACh transport; format: biochemical
T3 sequence (Q16572 1-532 C391A): T1 sequence (Q16572 1-532 W331A) with A331W, C391A

hVAChT K317A = target: T4, hVAChT K317A (Homo sapiens, UniProt Q16572, K317A); assay: [3H]vesamicol saturation binding; conditions: pH 7.4
T4 sequence (Q16572 1-532 K317A): T1 sequence (Q16572 1-532 W331A) with K317A, A331W

hVAChT M320A = target: T5, hVAChT M320A (Homo sapiens, UniProt Q16572, M320A); assay: [3H]vesamicol saturation binding; conditions: pH 7.4
T5 sequence (Q16572 1-532 M320A): T1 sequence (Q16572 1-532 W331A) with M320A, A331W

VAChT F335A = conditions: ref Ojeda et al. (2004); cited from earlier work

SMILES | [3H]ACh transport (hVAChT W331A) | FHA, fraction of the ACh sites that have high affinity (hVAChT A334F) | ACh transport faster than wild-type (hVAChT C391A; C391A hVAChT vs wild-type) | Vmax/Bmax, ACh transport normalized to Bmax (hVAChT C391A; C391A hVAChT, pH 7.4) | Km (hVAChT C391A; read-out: KM, Michaelis-Menten constant for ACh transport, C391A hVAChT, pH 7.4) | Bmax, maximal specific [3H]vesamicol binding (VAChT expression level) (hVAChT K317A) | Bmax, maximal specific [3H]vesamicol binding (VAChT expression level) (hVAChT M320A) | weaker binding of vesamicol (VAChT F335A)
CC(=O)OCC[N+](C)(C)C [ACh, acetylcholine] | no transport | 1.0 | about 2 times | 15 ± 2 min⁻¹ | 1800 ± 300 µM | – | – | –
O[C@@H]1CCCC[C@H]1N1CCC(c2ccccc2)CC1 (racemic) [vesamicol, ( )-trans-2-(4-phenylpiperidino)cyclohexanol] | – | – | – | – | – | 21 ± 1 pmol/mg | 62 ± 5 pmol/mg | ~ 3 fold
